# Assay results taken from BindingDB's records for doi:10.1021/jm000022w (Cor Therapeutics, 2000).
# Positions of bridges follow the written chain, without caps; N, C: chain ends. Non-standard residues stand in square brackets, D forms with d. Residues, ends and D or L forms follow the SMILES beside them. Phe(4-CH2NH2) = NCc1ccc(C[C@H](N)C(=O)O)cc1; Thz(5,5-Me2) = CC1(C)SCN[C@@H]1C(=O)O; NMeR = CN[C@@H](CCCNC(=N)N)C(=O)O
# Legend:
# [1] = Inhibition of human platelet aggregation in platelet rich plasma
# [2] = Inhibition of ADP-induced platelet aggregation
# [3] = Inhibition of ADP-induced platelet aggregation; remark: listed apart in the source
# [4] = Inhibition of alpha IIb beta-3 integrin mediated platelet aggregation
# [5] = Inhibition of human gel filtered platelet aggregation mediated by 10 uM ADP
# [6] = Inhibition of alpha IIb beta-3 integrin mediated platelet aggregation; remark: listed apart in the source
# [7] = inhibition of platelet aggregation in human platelet rich plasma
# [8] = Inhibition of human platelet aggregation in platelet rich plasma (PRP)
# [9] = Inhibition of collagen-induced platelet aggregation
# [10] = Inhibition of human gel filtered platelet aggregation induced by ADP
# [11] = Inhibition of canine platelet aggregation
# [12] = Inhibition of human platelet aggregation
structure (smiles),measurement,setting,value
O=C(NC[C@H](NS(=O)(=O)c1ccccc1)C(=O)O)c1cnc(N2CCN(C3CCNCC3)CC2)s1 [2-Benzenesulfonylamino-3-{[2-(4-piperidin-4-yl-piperazin-1-yl)-thiazole-5-carbonyl]-amino}-propionic acid (UR-12947)],IC50,[1],0.0035 µM
"CCCCOC(=O)N[C@@H](CNC(=O)C1CC(OCc2ccc(C(=N)N)cc2)=NO1)C(=O)OC (some centres not stated) [2-Butoxycarbonylamino-3-{[3-(4-carbamimidoyl-benzyloxy)-4,5-dihydro-isoxazole-5-carbonyl]-amino}-propionic acid methyl ester(XU 065)]",IC50,[2],0.05 µM
"N=C(N)c1ccc(C(=O)Nc2ccc3c(c2)C(=O)N(CCC(=O)O)Cc2nnnn2-3)cc1 [3-[8-(4-Carbamimidoyl-benzoylamino)-6-oxo-4H,6H-1,2,3,5,10b-pentaaza-benzo[e]azulen-5-yl]-propionic acid(G7453)]",IC50,[3],0.054 µM
C[C@H](CC(=O)O)NC(=O)CN1CCC[C@@H](CCC2CCNCC2)C1=O [3-{2-[2-Oxo-3-(2-piperidin-4-yl-ethyl)-piperidin-1-yl]-acetylamino}-butyric acid (L-734217)],IC50,[4],0.023 µM
"CC(=O)N[C@H]1CSSC[C@@H](C(=O)O)NC(=O)[C@H](CC(=O)O)NC(=O)CNC(=O)[C@H](Cc2ccc(CN)cc2)NC(=O)[C@H]2N(CSC2(C)C)C(=O)[C@H](CC(N)=O)NC1=O [8-Acetylamino-22-(4-aminomethyl-benzyl)-5-carbamoylmethyl-16-carboxymethyl-1,1-dimethyl-4,7,15,18,21,24-hexaoxo-icosahydro-2,10,11-trithia-3a,6,14,17,20,23-hexaaza-cyclopentacyclotricosene-13-carboxylic acid (MK-0852)] (Ac-CN[Thz(5,5-Me2)][Phe(4-CH2NH2)]GDC-OH; disulfide 1-7)",IC50,[5],0.026 µM
"CCOC(=O)CC1CCN(C(=O)C(C)(C)[C@@H](CC)NC(=O)c2ccc(C(=N)N3CCSC3)cc2F)CC1 [(1-{3-[2-Fluoro-4-(imino-thiazolidin-3-yl-methyl)-benzoylamino]-2,2-dimethyl-pentanoyl}-piperidin-4-yl)-acetic acid ethyl ester(NSL-96184)]",IC50,[6],0.045 µM
CCOC(=O)COC1CCN(C(=O)[C@H](C)NC(=O)c2ccc(C(=N)NO)cc2)CC1 [((S)-1-{2-[4-(N-Hydroxycarbamimidoyl)-benzoylamino]-propionyl}-piperidin-4-yloxy)-acetic acid ethyl ester],IC50,[7],0.038 µM
O=C(CCCC1CCNCC1)NCC(=O)N[C@H](CCc1c[nH]c2ccccc12)C(=O)O [L-703014],IC50,[8],0.094 µM
CCOC(=O)CCNC(=O)N[C@H]1CCN(c2ccc(C(=N)N)cc2)C1=O [SC-57099B],IC50,[9],0.13 µM
same,IC50,[10],0.08 µM
"CC(=O)N[C@H]1CSSC[C@@H](C(N)=O)NC(=O)[C@H](CC(=O)O)NC(=O)CNC(=O)[C@H](CCCNC(=N)N)N(C)C1=O [[16-Acetylamino-4-carbamoyl-13-(3-guanidino-propyl)-14-methyl-6,9,12,15-tetraoxo-1,2-dithia-5,8,11,14-tetraaza-cycloheptadec-7-yl]-acetic acid (SK&F 106760)] (Ac-C[NMeR]GDC-NH2; disulfide 1-5)",IC50,[11],0.09 µM
same,IC50,[12],0.23 µM
